One experiment relates to brain phospholipids. The experiment can be described thus: Brain phospholipid levels after UMP diet and/or PUFA gavage. It is filed as in vivo, gerbil. The conditions noted are these: for brain phospholipid levels: 3 weeks, summary of Table 6; for increase in brain total phospholipids over control: DHA 300 mg/kg/day gavage, UMP 0.5% of chow. The procedure: (§1) Cells were homogenized in 100 volumes of ice-cold deionized water using a tissue degrader (Polytron PT 10-35, Kinematica A G, Switzerland); 1 ml of aliquots were then mixed with 3 ml of chloroform+methanol mixture (2:1 v/v) and vortexed vigorously for 30 seconds. After cooling for 1 h on ice, the mixture was mixed sequentially with 3 ml of chloroform+methanol mixture (2:1 v/v) and 1 ml of ice-cold deionized water. The mixture was vortexed vigorously and allowed to stand overnight in the cold room (18 h). The organic (lower) and aqueous (upper) phases of the mixtures were separated by centrifugation (10 min at 4° C.; 1000 g). An aliquot (2 ml) of the upper phase was used for determination of CDP-Choline (see below), and 0.1-0.4 ml aliquots of the lower phase were dried under vacuum for phospholipid analysis. Residues of 0.1 ml aliquots of the lower phase were assayed for total phospholipid content by measuring phosphorus. Residues of 0.4 ml aliquots of the lower phase were reconstituted in 40 μl methanol and subjected to thin-layer chromatography using silica G plates (Adsorbosil Plus-1®, Alltech), and a system consisting of chloroform/ethanol/triethylamine/water (30:34:30:8) as the mobile phase. Phospholipid standards were used to identify the corresponding bands under UV light after the plates were sprayed with 0.1% diphenylhexatriene in petroleum ether. Bands for individual phospholipid classes (PC, PE, SM, PS and PI) were scraped off the plates and extracted into 1 ml of methanol; dried under vacuum; and assayed for phosphorus content. Total phosphorus was determined by comparison with standard curves by using KH2PO4 run with each assay. To each sample was added 0.5 ml of 4.5% HclO4/27% H2SO4 and tubes were heated at 180° C. for 3 h. After cooling to room temperature, 5 ml of the color reagent (a 10:1 dilution of solutions containing 2.5 mg/ml ammonium molybdate, 8.2 mg/ml sodium acetate and 100 mg/ml ascorbic acid respectively) was added and the tubes were incubated for 2 h, 37° C. Absorbance was measured spectrophotometrically at 820 nm. Phospholipid mass was determined by multiplying the phosphorus content by 25.
Control standard diet (Table 4) consisted of Teklad Global 16% protein rodent diet (Harlan Teklad, Madison, Wis.), which contained 0.1% choline chloride (CC), corresponding to a daily dose of 50 mg/kg/day. UMP was provided as 0.5% UMP.2Na^+ weight/weight, added to the control diet, also prepared by Harlan Teklad, corresponding to 240 mg/kg/day UMP. DHA was administered as 300 mg/kg/day in 200 microliter (mcL)/day 5% Arabic Gum solution, while groups not receiving DHA were administered vehicle (5% Arabic Gum) alone. DHA was provided by Nu-Chek Prep (Elysian, Minn.) and UMP by Numico (Wagenigen, NL).
Gerbils were anesthetized with ketamine and xylazine (80 and 10 mg/kg bwt, i.p.) and sacrificed by immersing the head into liquid nitrogen for 2 min, followed by decapitation. Brains were immediately and quickly (30 seconds) removed using a bone rongeur and stored at −80° C.
Frozen brain hemispheres were weighed and homogenized in 100 volumes of ice-cold deionized water using a tissue degrader (Polytron PT 10-35, Kinematica A G, Switzerland), then analyzed as described in Example 1.
Protein in whole brain homogenate sample was measured for using bicinchoninic acid reagent (Perkin Elmer, Norwalk, Conn., USA). DNA was measured by measuring 460 nm emission of samples on a fluorometer in the presence of bisbenzimidizole, a fluorescent dye known as Hoechst H 33258 (American Hoechst Corporation), which has an excitation maximum at 356 nm and an emission maximum of 458 when bound to DNA.
Adult gerbils were administered control standard diet (Table 4) with our without 0.5% UMP and/or 300 mg/kg/day DHA, EPA, or AA. Groups not receiving DHA were administered vehicle (5% Arabic Gum) alone.

The subject of another experiment is SHSY-5Y cells. Put plainly: 14C-choline incorporation into phospholipids in SHSY-5Y cells. It counts as cell-based, human. The settings on record: for phospholipid synthesis: 18 hr with 10 μM fatty acid, FIG. 3A. The procedure: as §1
SHSY-5Y cells were grown to near confluency in DMEM+10% FBS in 35 mm dishes. Cells were incubated for 18 hr in serum-free DMEM+1% FBS containing 30 μM choline+/−10 μM of DHA, arachidonic acid, or palmitic acid. Cells were then labeled, and labeled phospholipids were quantified as described for Example 1.
DHA was dissolved in ethanol to a […] concentration and frozen in 10 microliter aliquots at −80° C. For each experiment, one aliquot was diluted in ethanol to 10 micromolar; the volume giving the desired final solution in incubation medium was mixed with an equal volume of BSA solution (1 gm/ml).

Another experiment deals with brain CDP-choline. Put plainly: Brain CDP-choline and CDP-ethanolamine levels (HPLC). It counts as in vivo, gerbil. The settings on record: 28 days; for brain CDP-choline levels: FIG. 5A; for brain CDP-ethanolamine levels: FIG. 5B. As for the experimental part: FIG. 5. Effects of DHA on brain CDP-choline levels (A) and CDP-ethanolamine levels (B). Groups of 8 gerbils received either a control or a UMP-containing diet, and, by gavage, DHA (in a vehicle of 5% gum Arabic solution) or 5% gum Arabic solution alone for 28 days. On the 29th day brains were harvested and assayed for CDP-choline. Data are presented as means±SEM. Statistical analysis was performed using one- or two-way ANOVA followed by Tukey test. a: P<0.05 when compared with the values for control diet plus vehicle group; b: P<0.05 when compared with values for UMP diet plus vehicle group.
Aliquots (2 ml) of the upper (aqueous) phase were dried under a vacuum, reconstituted, and injected into an HPLC. The dried samples were reconstituted in 100-200 μl water and were analyzed by HPLC on an anion exchange column (Alltech Hypersil APS-2, […], 250×4.6 mm). CDP-choline was eluted with a linear gradient of buffers A (H3PO4, 1.75 mM, pH 2.9) and B (NaH2PO2, 500 mM, pH 4.5) from 0 to 100% B over period of 30 min. With this system, CDP-choline was resolved from closely co-eluting substances such as UMP in an isocratic system over a period of 40 min. The retention time for CDP-choline was 9.5 min. The column was washed with buffer B at the end of each experiment and every several days to remove retained nucleotides. Individual nucleotide peaks were detected by UV absorption at 280 nm and were identified by comparison with the positions of authentic standards, as well as by the addition of nucleotide standards to samples.

In another experiment the test system is PC-12 cells. Put plainly: 14C-choline incorporation into phospholipids in PC-12 cells. The conditions noted are these: for Phosphatidylcholine (PC) synthesis (incorporation of 14C label into PC): 18 hr pre-incubation with 5 μM fatty acid, FIG. 1. It is filed as cell-based. As for the experimental part: PC-12 cells were maintained in Dulbecco's modified Eagle's medium (DMEM)+10% fetal bovine serum (FBS). For experiments, cells were grown in quintuplicate collagen-coated 35 millimeter (mm) dishes. Cells were incubated for 18 hours (hr) in serum-free DMEM containing 28 μM choline+/−5 micromolar (μM) of DHA, oleic acid, or palmitic acid. Cells were then labeled for 2.5 hr with 0.5 microcurie (μCi)/ml ^14C-choline in serum-free DMEM containing 10-micromolar (μM) choline.
as §1, with “To each sample was added 0.5 ml of 4.5% HclO4/27% H2SO4 and tubes were heated at 180° C. for 3 h. After cooling to room temperature, 5 ml of the color reagent (a 10:1 dilution of solutions containing 2.5 mg/ml ammonium molybdate, 8.2 mg/ml sodium acetate and 100 mg/ml ascorbic acid respectively) was added and the tubes were incubated for 2 h, 37° C.” left out
In order to assess the effect of omega-3 fatty acids on phospholipid synthesis, PC-12 cells were incubated with ^14C-labeled choline, following an 18-hour pre-incubation with or without DHA. Incorporation of label into phospholipids was then measured. […]
To further characterize the stimulation of phospholipid synthesis by omega-3 fatty acids, PC-12 cells were pre-treated with different doses of DHA and exposed to labeled choline as described in Example 1, then incorporation of ^14C-label into phospholipids was measured. […]

Consider `CCC=CCC=CCC=CCC=CCC=CCC=CCCC(=O)O` [DHA, 4,7,10,13,16,19-docosahexaenoic acid], for which the “brain phospholipid, pmol phospholipid per milligrams (mg) protein” value in the experiment on brain phospholipids (FIG. 4A, gerbils, 4 weeks, ANOVA vs control) is listed as “statistically significant effect”. Further, the brain phospholipid levels result in the experiment on brain phospholipids (gerbils) is listed as “increased”. The “increase in brain total phospholipids over control” value in the experiment with brain phospholipids (gerbils, 4 weeks) came to 12%. Further, in the experiment on brain phospholipids (vs control, Table 5A), the “increase in brain levels of PC” value is recorded as 22%, the “increase in brain levels of PE” value was 20%, the “increase in brain levels of PI” value turned out to be 52% and the “increase in brain levels of sphingomyelin” value was 24%. The phospholipid synthesis entry with SHSY-5Y cells was “not”. In the experiment with brain CDP-choline, the “brain CDP-choline levels” value is reported as “decreased” and the “brain CDP-ethanolamine levels” value is given as “decreased”. Also, the “Phosphatidylcholine (PC) synthesis (incorporation of 14C label into PC)” value (shortened to “Phosphatidylcholine (PC) synthesis”) in the experiment with PC-12 cells is reported as “significantly increased”. Besides, in the experiment on PC-12 cells (different doses of DHA, dose-dependent, FIG. 2), the “synthesis of phospholipids (incorporation of 14C-label)” value is reported as “increased”.

In the case of `CCC=CCC=CCC=CCC=CCC=CCCCC(=O)O` [EPA, 5,8,11,14,17-eicosapentaenoic acid], the brain phospholipid levels entry in the experiment with brain phospholipids (gerbils) was “increased”.

`O=c1ccn([C@@H]2O[C@H](COP(=O)(O)O)[C@@H](O)[C@H]2O)c(=O)[nH]1` [UMP, uridine monophosphate]: the “effects on brain phospholipids” value in the experiment with brain phospholipids (After 1 week of treatment) was “no significant effects”. For the same compound, the PtdEtn with brain phospholipids (Table 5 part A, gerbil brain) worked out at 84 ± 8 nmol/mg prt. For the same compound, the “increases in all 5 of the phospholipids” value in the experiment with brain phospholipids (Treatment for 3 weeks, Table 5B) was “smaller but still significant increases”. Also, in the experiment with brain phospholipids (gerbils, 4 weeks), the “increase in brain total phospholipids over control” value is 5%. Also, in the experiment with brain phospholipids (vs control, Table 5A), the “increase in brain levels of PC” value is on record as 13%, the “increase in brain levels of PE” value came out at 29% and the “increase in brain levels of PI” value is reported as 48%. Moreover, in the experiment with brain CDP-choline, the “brain CDP-choline levels” value is “decreased” and the “brain CDP-ethanolamine levels” value is reported as “decreased”.

On to `CCCCCC=CCC=CCC=CCC=CCCCC(=O)O` [arachidonic acid, 5,8,11,14-eicosatetraenoic acid], for which, in the experiment on brain phospholipids (gerbils), the brain phospholipid levels result is listed as “increased”. Moreover, the phospholipid synthesis result in the experiment with SHSY-5Y cells was “enhanced”. The “synthesis of total phospholipids, PC, and phosphatidylethanolamine” value with SHSY-5Y cells (range of dosages, dose-dependent, FIG. 3B) is “increased”.

In the case of `CCCCCCCC/C=C\CCCCCCCC(=O)O` [oleic acid, reference compound], in the experiment on PC-12 cells, the “Phosphatidylcholine (PC) synthesis” value is “not”.

For `CCCCCCCCCCCCCCCC(=O)O` [palmitic acid, reference compound], the phospholipid synthesis entry in the experiment on SHSY-5Y cells was “not”. For the same compound, in the experiment on PC-12 cells, the “Phosphatidylcholine (PC) synthesis” value is reported as “not”.

Source of the values: patent US10525071B2, “Compositions containing PUFA and methods of use thereof” (MASSACHUSETS INSTITUE OF TECHNOLOGY, priority 2005, dated 2020).
